Experimental data from patent publication US12227520B2 (priority 2019, dated 2025).
Like-named read-outs stand apart in the source and are kept apart here.

Experiments:
[1] = system: HIV-1 (IIIB); assay: Antiviral assay in MT-4 cells (HIV MT-4 antiviral assay); format: cell-based; conditions: HIV-1 (IIIB) in MT-4 cells, 5 days incubation, read-out: EC50
Outline: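 Read-out is CellTiter-Glo chemiluminescence after 5-day culture at 37° C, giving protection of MT-4 cells from HIV-1 IIIB cytopathicity. Compounds tested in 1:3 dilution series in complete RPMI; controls were no drug, mock infection and 5 μM AZT.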

[2] = system: pLai RLuc reporter virus; assay: microbe, parasite or virus in culture; format: cell-based, HIV; conditions: Human immunodeficiency virus 1, 72 h
Description: To quantify the amount of protein binding to human serum, compounds were serially diluted (1:3) in DMSO and acoustically transferred onto 384-well assay plates via a Labcyte ECHO robot. Each plate contained up to 8 test compounds, including negative and positive controls, (DMSO, 5 μM AZT respectively). Assay plates were prepared in duplicate, and tested in either CCM (cell culture media) or HS/CCM (human serum/cell culture media). MT-4 cells were first pre-infected with pLai RLuc reporter virus for 2 h at 37° C., then further diluted in either CCM (RPMI media, 10% FBS, 1% P/S) or HS/CCM (RPMI media, 10% FBS, 50% HS, 1% P/S), and subsequently added to each plate using a Biotek Micro Flow dispenser. After a 72-h incubation in a humidified and temperature controlled incubator (37° C.), Renilla Glo (Promega) was added to all assay plates and chemiluminescence read using an Envision plate-reader. […] To determine the amount of protein binding, EC50 fold shifts (or EC50 shifts) were calculated by dividing EC50 (HS/CCM)/EC50 (CCM).

[3] = Cytotoxicity assay in MT-4 cells; format: cell-based, human; conditions: human, uninfected MT-4 cells, 5 days incubation; read-out: CC50
Outline: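 For cytotoxicity, uninfected MT-4 cells were incubated with compounds 5 days at 37 °C, with 10 μM puromycin marking base cytotoxicity. Parallel plates used HIV-1 IIIB-infected (1:250 stock dilution) or mock cells with 5 μM AZT and no-drug controls. Read-out: CellTiter-Glo chemiluminescence.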

[4] = Human immunodeficiency virus 1, IIIB, MT4, 120 h
[5] = read-out: Antiviral Serum Shift RLuc 50% HS, HS/CCM (RPMI media, 10% FBS, 50% HS, 1% P/S), 72-h incubation
[6] = read-out: Antiviral Serum Shift RLuc CCM, CCM (RPMI media, 10% FBS, 1% P/S), 72-h incubation

Structure (SMILES) | EC50 [1, 4] | EC50 [2, 5] | EC50 [2, 6] | CC50 at 5 days [3] | EC50 [1]
O=C(NCc1ccc(F)cc1F)c1cn2c(c(O)c1=O)C(=O)N1CCCCC2C1 (racemic) [Example 25, N-(2,4-difluorobenzyl)-12-hydroxy-1,11-dioxo-1,4,5,6,7,11-hexahydro-3H-2,7-methanopyrido[1,2-a][1,4]diazonine-10-carboxamide] | 1.7 nM | 1.92 nM | 0.191 nM | 12600 nM | 
O=C(NCc1c(F)cc(F)cc1F)c1cn2c(c(O)c1=O)C(=O)N1CCCC(F)(F)[C@@H]2C1 (single isomer, unassigned) [Example 10-1] | 3.2 nM | 1140 nM | 1.02 nM | 37100 nM | 
O=C(NCc1c(F)cc(F)cc1F)c1cn2c(c(O)c1=O)C(=O)N1CCCC(F)(F)[C@H]2C1 (single isomer, unassigned) [Example 10-2] | 1 nM | 5.04 nM | 0.27 nM | 16100 nM | 
O=C(NCc1ccc(F)cc1F)c1cn2c(c(O)c1=O)C(=O)N1CCCC[C@@H]2C1 (single isomer, unassigned) [Example 25-1] | 1.3 nM | 36.6 nM | 0.42 nM | 11500 nM | 
O=C(NCc1ccc(F)cc1F)c1cn2c(c(O)c1=O)C(=O)N1CCCC[C@H]2C1 (single isomer, unassigned) [Example 25-2] | 1.46 nM | 1.14 nM | 0.285 nM | 10800 nM | 
O=C(NCc1c(F)cc(F)cc1F)c1cn2c(c(O)c1=O)C(=O)N1CC2CCc2ccccc21 (single isomer, unassigned) [Example 38-1] |  | 360 nM | 2.64 nM | 11000 nM | 16.3 nM
O=C(NCc1ccc(F)cc1F)c1cn2c(c(O)c1=O)C(=O)N1CC3CC3CC2C1 (single isomer, unassigned) [Example 42-1, N-(2,4-difluorobenzyl)-5-hydroxy-4,6-dioxo-1,1a,2,4,6,10,11,11a-octahydro-3,10-methanocyclopropa[f]pyrido[1,2-a][1,4]diazonine-7-carboxamide] | 1.6 nM | 1.34 nM | 0.28 nM | 7490 nM | 
O=C(NCc1ccc(F)cc1F)c1cn2c(c(O)c1=O)C(=O)N1C[C@@H](F)CC[C@H]2C1 (single isomer, unassigned) [Example 53-2] | 6.2 nM | 2.27 nM | 1.58 nM | 28400 nM | 
O=C(NCc1ccc(F)cc1F)c1cn2c(c(O)c1=O)C(=O)N1C[C@@H](F)CC[C@@H]2C1 (single isomer, unassigned) [Example 53-3] | 1.94 nM | 75.2 nM | 0.223 nM | 11200 nM | 
C[C@]1(F)CCCN2C[C@@H]1n1cc(C(=O)NCc3ccc(F)cc3F)c(=O)c(O)c1C2=O (single isomer, unassigned) [Example 60-2] | 1.97 nM | 102 nM | 0.328 nM | 14000 nM | 
O=C(NCc1c(F)cc(F)cc1F)c1cn2c(c(O)c1=O)C(=O)N1CCc3ccccc3[C@H]2C1 (single isomer, unassigned) [Example 63-1] | 1.7 nM | 2.16 nM | 0.461 nM | 13800 nM | 
O=C(NCc1c(F)cc(F)cc1F)c1cn2c(c(O)c1=O)C(=O)N1CCC[C@H](Cl)[C@H]2C1 (single isomer, unassigned) [Example 72-1] | 1.57 nM | 5.36 nM | 0.281 nM | 9990 nM | 
O=C(NCc1c(F)cc(F)cc1F)c1cn2c(c(O)c1=O)C(=O)N1CCC[C@@H](Cl)[C@H]2C1 (single isomer, unassigned) [Example 72-2] | 4.27 nM | 34 nM | 0.267 nM | 12100 nM | 
O=C(NCc1c(F)cc(F)cc1F)c1cn2c(c(O)c1=O)C(=O)N1CCC=C(F)[C@@H]2C1 (single isomer, unassigned) [Example 75-1] | 3.76 nM | 298 nM | 0.595 nM | 15100 nM | 
O=C(NCc1c(F)cc(F)cc1F)c1cn2c(c(O)c1=O)C(=O)N1CCC=C(F)[C@H]2C1 (single isomer, unassigned) [Example 75-2] | 2.09 nM | 2.19 nM | 0.473 nM | 26000 nM | 
O=C(NCc1c(F)cc(F)cc1F)c1cn2c(c(O)c1=O)C(=O)N1C[C@@H](O)CC[C@H]2C1 (single isomer, unassigned) [Example 79-1] | 58.5 nM | 23.5 nM | 19.5 nM | > 50000 nM | 
O=C(NCc1c(F)cc(F)cc1F)c1cn2c(c(O)c1=O)C(=O)N1C[C@H](O)CC[C@H]2C1 (single isomer, unassigned) [Example 79-2] | 17.7 nM | 6.61 nM | 5.33 nM | > 50000 nM | 
O=C(NCc1c(F)cc(F)cc1F)c1cn2c(c(O)c1=O)C(=O)N1CCc3cc(F)c(F)cc3[C@H]2C1 (single isomer, unassigned) [Example 110-1] | 2 nM | 2.75 nM | 0.323 nM | 9870 nM | 
O=C(NCc1c(F)cc(F)cc1F)c1cn2c(c(O)c1=O)C(=O)N1CCc3cc(F)c(F)cc3[C@@H]2C1 (single isomer, unassigned) [Example 110-2] | 30.5 nM | 53.7 nM | 4.81 nM | 6330 nM | 
O=C(NCc1ccc(F)cc1F)c1cn2c(c(O)c1=O)C(=O)N1CCc3cc(F)c(F)cc3[C@H]2C1 (single isomer, unassigned) [Example 111-1] | 2.01 nM | 7.12 nM | 0.447 nM | 5910 nM | 
C[C@]12CC(F)CCN(C1)C(=O)c1c(O)c(=O)c(C(=O)NCc3c(F)cc(F)cc3F)cn12 (single isomer, unassigned) [Example 112] | 0.712 nM | 27.8 nM | 0.182 nM | 8030 nM | 
O=C(NCc1ccc(F)c(Cl)c1F)c1cn2c(c(O)c1=O)C(=O)N1CCCC(F)(F)[C@H]2C1 (single isomer, unassigned) [Example 117-1] | 1.93 nM | 7.17 nM | 0.33 nM | 13300 nM | 
O=C(NCc1ccc(F)c(Cl)c1F)c1cn2c(c(O)c1=O)C(=O)N1CCCC(F)(F)[C@@H]2C1 (single isomer, unassigned) [Example 117-2] | 3.53 nM | 1270 nM | 0.603 nM | 15700 nM | 
C[C@@]12CN(CCc3cc(F)c(F)cc31)C(=O)c1c(O)c(=O)c(C(=O)NCc3c(F)cc(F)cc3F)cn12 (single isomer, unassigned) [Example 120-1] | 3.54 nM | 4.96 nM | 0.371 nM | 8990 nM | 
C[C@H]1CCCN2C[C@H]1n1cc(C(=O)NCc3c(F)cc(F)cc3F)c(=O)c(O)c1C2=O [Example 170, (6S,7S)-12-hydroxy-6-methyl-1,11-dioxo-N-(2,4,6-trifluorobenzyl)-1,4,5,6,7,11-hexahydro-3H-2,7-methanopyrido[1,2-a][1,4]diazonine-10-carboxamide] | 1.21 nM |  |  | 9860 nM | 
